Data from paper PMC12636382, “Human and zebrafish mineralocorticoid receptors reporter cell assays to assess the activity of chemicals” (iScience, 2025).
Several values for one entry are separate records, joined by “and”; a condition that tells them apart may be missing. Equal entries are not always repeated. Where two headings read alike, the source gives them in different places.

Columns and labels:
zebrafish MR (zfMR) = zebrafish MR (zfMR) (Danio rerio, UniProt A6YIH7); assay: UG5LN-GAL4-zfMR luciferase reporter cell assay (agonism and antagonism tests); type: cell-based; details: for EC50: agonism test, chemical alone, mean of at least three experiments, read-out: EC50
Description: (§1) The U2OS cells used to establish the MR reporter cell lines were obtained from and verified by ECACC (UK Health Security Agency, Porton Down, Salisbury, UK). The strategy used has been described previously to establish other NR-based cell lines.[42] First, the different pSG5-GAL4(DBD)-MRs (LBD) and (GAL4RE)5βGlob-Luc-SVNeo plasmids were tested by transient transfections in U2OS. Then, the UG5LN-GAL4-hMR and UG5LN-GAL4-zfMR clonal cells were generated in two steps. The first step was to establish clonal UG5LN cells by a stable transfection of U2OS cells, considered as steroid receptor negative, with the plasmid (GAL4RE)5βGlob-Luc-SVNeo. The second step consisted of the transfection of UG5LN cells with the plasmids pSG5-GAL4(DBD)-hMR(LBD)-puro, pSG5-GAL4(DBD)-hMRT870L(LBD)-puro or pSG5-GAL4(DBD)-zfMR(LBD)-puro, to generate UG5LN-GAL4-hMR, UG5LN-GAL4-hMRT870L and UG5LN-GAL4-zfMR clonal cells, respectively. Stable cell clones were selected in the presence of puromycin 0.5 μg/mL and G418 1 mg/mL. For each receptor, 5 to 10 clones were chosen for their ligand-induced luciferase expression. The clones were amplified and luciferase expression was checked at several passages. For each receptor, the clone with the best induction of luciferase activity was selected and used for the screening of the different chemicals. The stability and the inducibility of luciferase expression were checked during at least 20 passages (20 weeks).
(§2) To perform the reporter gene assay, cells were seeded in 96-wells white transparent culture plates (Greiner bio-one 655098CellStar; Dutscher, Brumath, France) at a density of 60,000 cells per well in 150 μL of culture medium and incubated at 37°C and 5% CO2 for 24 h. Then, after the attachment period, medium was removed and cells were exposed to increasing dilutions of the tested compounds in the experimental medium (DMSO; final concentration 0.1% v/v for chemicals and 0.3% v/v for water sample extracts) and incubated at 37°C and 5% CO2. After 24 h, medium was removed and replaced with 50 μL/well of experimental medium containing 0.3 mM luciferin. The luminescence signal was monitored in intact live cells for 2 s per well using a MicroBeta Wallac luminometer (PerkinElmer, Courtaboeuf, France). All experiments were performed in quadruplicate.
(§3) The quantification and statistical analysis are integral parts of the software used (GraphPad Prism 10, GraphPad Software Inc). The compounds were tested at different concentrations in at least three independent experiments. In each experiment, the compounds were tested in quadruplicate for each concentration, and the data were expressed as averages of the quadruplicates with their standard deviation to obtain a single value for that experimental series. Then, individual dose-response curves for each chemical were fitted from the averages of the three individual experiments using the sigmoidal dose-response function of the graphics and statistics software program GraphPad. Specifically, GraphPad employs nonlinear regression with the least squares method to fit the data to a sigmoidal function (based on the Hill equation). This method is used to determine the optimal parameter values, such as the Half Maximal Effective concentration (EC50) for agonist and the Half Maximal Inhibitory Concentration (IC50) for antagonist. […] Once the best-fit curve was obtained, the confidence intervals (e.g., 95% CI) for these parameters were estimated based on the uncertainty (variance) derived from the regression model, and the lower and upper 95% confidence limits of EC50s and IC50s were reported.

human MR (hMR) = molecular target: T1, human MR (hMR) (Homo sapiens, UniProt P08235); assay: UG5LN-GAL4-hMR luciferase reporter cell assay (agonism and antagonism tests); type: cell-based; details: for % min act: % of maximal luciferase activity induced by 10^−8 M aldosterone
T1 construct: hMR(LBD) (G671-K894) and zfMR(LBD) (L668-K970) have been amplified by PCR; expressed in transfected cells
T1 sequence (P08235 671-984 limits assumed): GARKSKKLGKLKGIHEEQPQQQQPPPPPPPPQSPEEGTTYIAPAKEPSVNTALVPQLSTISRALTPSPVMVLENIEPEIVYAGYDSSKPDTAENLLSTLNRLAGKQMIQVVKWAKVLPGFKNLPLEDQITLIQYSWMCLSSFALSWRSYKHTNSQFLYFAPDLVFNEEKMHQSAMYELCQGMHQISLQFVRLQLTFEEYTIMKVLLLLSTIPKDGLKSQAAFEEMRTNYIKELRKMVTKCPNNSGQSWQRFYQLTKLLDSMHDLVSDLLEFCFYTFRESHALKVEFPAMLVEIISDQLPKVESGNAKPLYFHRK
Description: as §1, §2, §3

[1] = in words, UG5LN-GAL4-zfMR cells
[2] = environmental chemicals, antagonism test with aldosterone 0.5 10^−9 M, UG5LN-GAL4-zfMR, read-out: IC50
[3] = environmental chemicals at 10^−5 M, antagonism test
[4] = environmental chemicals, antagonism test with aldosterone 10^−9 M, UG5LN-GAL4-hMR, read-out: IC50
[5] = antagonism test, in presence of aldosterone 10^−9 M, UG5LN-GAL4-hMR cells, read-out: IC50
[6] = antagonism test, in presence of aldosterone 0.5 10^−9 M, UG5LN-GAL4-zfMR cells, read-out: IC50
[7] = antagonism test with aldosterone 10^−9 M, at 10^−5, 10^−6 or 10^−7 M depending on chemical

zebrafish MR (zfMR), sequence (A6YIH7 entry or part of it): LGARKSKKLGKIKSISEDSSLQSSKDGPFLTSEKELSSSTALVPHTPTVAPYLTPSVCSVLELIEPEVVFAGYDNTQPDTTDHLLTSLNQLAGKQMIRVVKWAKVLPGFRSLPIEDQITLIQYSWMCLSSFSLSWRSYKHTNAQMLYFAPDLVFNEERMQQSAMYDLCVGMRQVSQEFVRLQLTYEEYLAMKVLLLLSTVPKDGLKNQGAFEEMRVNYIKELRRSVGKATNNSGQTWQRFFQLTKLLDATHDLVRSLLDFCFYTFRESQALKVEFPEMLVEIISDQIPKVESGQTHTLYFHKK

| Molecule | activity profile on zfMR (agonist / partial agonist / antagonist) (zebrafish MR (zfMR); [1]) | % min act (zebrafish MR (zfMR)) | IC50 (zebrafish MR (zfMR); [2]) | % min act (human MR (hMR); [3]) | IC50 (human MR (hMR); [4]) | other results |
| --- | --- | --- | --- | --- | --- | --- |
| 17α-hydroxyprogesterone [17α-hydroxy progesterone] | full agonists | – | – | – | – | % max act (zebrafish MR (zfMR)): 97.6 ± 1.2%; EC50 (zebrafish MR (zfMR); UG5LN-GAL4-zfMR cells, listed as 17-α-hydroxy progesterone): 0.00024 µM; EC50 (zebrafish MR (zfMR); UG5LN-GAL4-zfMR cells, listed as 17α-hydroxyprogesterone): 0.0002 µM |
| ClC(Cl)=C(c1ccc(Cl)cc1)c1ccccc1Cl [2,4′-DDE, 2,4′DDE] | – | 34.8 ± 6.6% | 6.9 µM | 8.3 ± 1.2% | 0.47 µM | – |
| CC(C)(c1ccc(O)cc1)c1ccc(O)c(Cl)c1 [2-chloro-bisphenol A] | – | – | 4.3 µM | 12 ± 8.7% | 1.36 µM | % min act (zebrafish MR (zfMR); environmental chemicals at 10^−5 M, antagonism test, % of maximal luciferase activity induced by 10^−8 M aldosterone): 13.2 ± 1.3% |
| CC(C)(C)CC(C)(C)c1ccc(O)cc1 [4-tert-octylphenol] | – | – | 15.8 µM | – | 2.12 µM | – |
| C[C@]12CCC(=O)C=C1CC[C@@H]1[C@@H]2CC[C@@]2(C)[C@H]1CC[C@]2(O)C(=O)CO [11-deoxycortisol] | partially activate | – | – | – | – | EC50 (zebrafish MR (zfMR); UG5LN-GAL4-zfMR cells): 0.00073 µM; REP (relative potency) (zebrafish MR (zfMR); ratio of EC50 values aldosterone/chemical, aldosterone set at 1): 0.41; IC50 (human MR (hMR); [5]): 0.0044 µM and 0.00441 µM; activity profile on hMR (agonist / partial agonist / antagonist) (human MR (hMR); in words, UG5LN-GAL4-hMR cells): complete antagonists |
| Oc1ccc(C(c2ccc(O)cc2)C(Cl)(Cl)Cl)cc1 [HPTE] | – | 51 ± 6.8% | 11.1 µM | 12.3 ± 1.5% | 2.06 µM | – |
| ClC1=C(Cl)C2(Cl)C3C4C=CC(C4)C3C1(Cl)C2(Cl)Cl (stereo not shown) [aldrin] | – | – | 2.17 µM | – | 0.39 µM | – |
| CC(C)(c1ccc(O)cc1)c1ccc(O)cc1 [bisphenol A, Bisphenol A] | – | – | 5.15 µM | – | 2.28 µM | – |
| C[C@]12CCC(=O)C=C1C=C[C@@H]1[C@@H]2CC[C@@]2(C)[C@H]1CC[C@@]21CCC(=O)O1 [canrenone] | full antagonists | – | – | – | – | IC50 (zebrafish MR (zfMR); [6]): 0.018 µM and 0.0184 µM; IC50 (human MR (hMR); [5]): 0.017 µM and 0.0167 µM; activity profile on hMR (agonist / partial agonist / antagonist) (human MR (hMR); in words, UG5LN-GAL4-hMR cells): full antagonists |
| O=C1C2(Cl)C3(Cl)C4(Cl)C(Cl)(Cl)C5(Cl)C3(Cl)C1(Cl)C5(Cl)C24Cl (stereo not shown) [chlordecone] | – | 28.6 ± 0.3% | 5.59 µM | 8.4 ± 1% | 1.21 µM | – |
| C[C@]12CCC(=O)C[C@@H]1CC[C@@H]1[C@@H]2CC[C@]2(C)[C@@H](O)CC[C@@H]12 [dihydrotestosterone] | – | – | – | – | – | activity profile on zfMR (agonist / partial agonist / antagonist) (zebrafish MR (zfMR)): full antagonists; IC50 (zebrafish MR (zfMR); IC50): 0.035 µM and 0.0349 µM; activity profile on hMR (agonist / partial agonist / antagonist) (human MR (hMR)): full antagonists; IC50 (human MR (hMR); IC50): 0.06 µM |
| O=S1OCC2C(CO1)C1(Cl)C(Cl)=C(Cl)C2(Cl)C1(Cl)Cl (stereo not shown) [endosulfan] | – | – | 8.4 µM | – | 1.01 µM | – |
| CC#C[C@]1(O)CC[C@H]2[C@@H]3CCC4=CC(=O)CCC4=C3[C@@H](c3ccc(N(C)C)cc3)C[C@@]21C [mifepristone] | full antagonists | – | – | – | – | IC50 (zebrafish MR (zfMR); [6]): 1.05 µM; activity profile on hMR (agonist / partial agonist / antagonist) (human MR (hMR); in words, UG5LN-GAL4-hMR cells): full antagonists |
| CC(=O)[C@H]1CC[C@H]2[C@@H]3CC=C4C[C@@H](O)CC[C@]4(C)[C@H]3CC[C@]12C [pregnenolone] | full antagonists | 4.1 ± 0.2% | – | – | – | IC50 (zebrafish MR (zfMR); [6]): 0.166 µM; % min act (human MR (hMR); [7]): 6.0 ± 1%; IC50 (human MR (hMR); [5]): 0.068 µM and 0.0677 µM; activity profile on hMR (agonist / partial agonist / antagonist) (human MR (hMR); in words, UG5LN-GAL4-hMR cells): full antagonists |
| CCCOCCN(C(=O)CCl)c1c(CC)cccc1CC [pretilachlore] | – | 21 ± 0.7% | 4.71 µM | 21.5 ± 1.7% | 3.51 µM | – |
| CC(=O)[C@H]1CC[C@H]2[C@@H]3CCC4=CC(=O)CC[C@]4(C)[C@H]3CC[C@]12C [progesterone] | partially activate | – | – | – | – | – |
| CCC(=O)[C@@]1(C)CC[C@H]2[C@@H]3CCC4=CC(=O)CCC4=C3CC[C@@]21C [promegestone] | full antagonists | – | – | – | – | IC50 (zebrafish MR (zfMR); [6]): 0.291 µM; IC50 (human MR (hMR); [5]): 0.169 µM; activity profile on hMR (agonist / partial agonist / antagonist) (human MR (hMR); in words, UG5LN-GAL4-hMR cells): full antagonists |
| ClC1=C(Cl)[C@]2(Cl)[C@H]3[C@H]([C@H](Cl)C(Cl)[C@@H]3Cl)[C@@]1(Cl)C2(Cl)Cl (stereo partly shown) [transnonachlore] | – | 57.8 ± 9% | – | 10 ± 0.9% | 0.61 µM | – |
| C=CC(C)(O)C(=O)Nc1cc(Cl)cc(Cl)c1 (stereo not shown) [vinclozoline M2, Vinclozolin M2] | – | 31 ± 0.5% | 7 µM | 28 ± 3.3% | 5.96 µM | – |
| Bisphenol C | – | – | 11.8 µM | 51 ± 6% | 13.2 µM | – |
| Nonylphenol mixture | – | 40.7 ± 4.8% | 9.2 µM | 12 ± 2.5% | 1.56 µM | – |
| dihydroprogesterone | full antagonists | 5 ± 0.5% | – | – | – | IC50 (zebrafish MR (zfMR); [6]): 0.186 µM; % min act (human MR (hMR); [7]): 11 ± 2%; IC50 (human MR (hMR); [5]): 0.395 µM; activity profile on hMR (agonist / partial agonist / antagonist) (human MR (hMR); in words, UG5LN-GAL4-hMR cells): full antagonists |
